Key:
Format in all cases: cell-based
RARα [1] = target: T1, RARα (Homo sapiens, UniProt P10276); assay: RARα transcriptional assay, agonist activity; details: agonist mode
T1 sequence (P10276 1-462): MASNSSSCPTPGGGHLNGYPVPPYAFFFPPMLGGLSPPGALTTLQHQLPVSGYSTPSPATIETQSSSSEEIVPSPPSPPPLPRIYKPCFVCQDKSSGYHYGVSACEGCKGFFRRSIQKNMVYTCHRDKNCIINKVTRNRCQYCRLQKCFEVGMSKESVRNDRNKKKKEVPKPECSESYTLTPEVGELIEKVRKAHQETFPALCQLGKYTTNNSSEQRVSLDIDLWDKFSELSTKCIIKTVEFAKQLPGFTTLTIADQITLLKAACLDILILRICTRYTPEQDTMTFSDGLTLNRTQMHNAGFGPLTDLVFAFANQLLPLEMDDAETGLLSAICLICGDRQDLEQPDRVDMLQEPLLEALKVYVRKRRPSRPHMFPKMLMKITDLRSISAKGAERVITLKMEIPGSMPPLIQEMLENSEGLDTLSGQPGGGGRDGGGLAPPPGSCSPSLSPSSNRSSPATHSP
Description: (§1) Transcriptional assays for RARα, RARβ and RARγ, which measure the antagonist or agonist like activity of the compounds are described in WO 2017/201200 A1 (Thacher, Crowe, Tao and Raheja, Therapeutic compositions containing RAR-alpha antagonists) published on Nov. 23, 2017, which is also incorporated herein by reference. The results obtained in these assays are expressed as EC50 values when measuring agonist activity and IC50 values when measuring antagonist activity in the presence of 0.5 nM TTNPB, a retinoid agonist.

RARβ [2] = target: T2, RARβ (Homo sapiens, UniProt P10826); assay: RARβ transcriptional assay, agonist activity; details: agonist mode
T2 sequence (P10826 1-455): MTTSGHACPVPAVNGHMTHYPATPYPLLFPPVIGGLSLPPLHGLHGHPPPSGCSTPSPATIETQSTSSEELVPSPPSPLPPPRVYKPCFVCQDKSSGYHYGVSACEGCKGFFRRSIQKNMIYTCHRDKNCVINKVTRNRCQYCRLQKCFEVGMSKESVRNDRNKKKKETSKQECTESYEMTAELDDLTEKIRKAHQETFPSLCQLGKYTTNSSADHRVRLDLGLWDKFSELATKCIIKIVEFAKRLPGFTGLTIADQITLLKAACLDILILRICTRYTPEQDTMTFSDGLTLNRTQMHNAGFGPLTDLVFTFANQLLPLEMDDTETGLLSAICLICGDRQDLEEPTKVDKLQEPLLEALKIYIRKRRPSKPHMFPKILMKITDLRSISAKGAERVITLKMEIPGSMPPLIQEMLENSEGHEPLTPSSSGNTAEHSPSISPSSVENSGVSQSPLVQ
Description: as §1

RARγ [3] = target: T3, RARγ (Homo sapiens, UniProt P13631); assay: RARγ transcriptional assay, agonist activity; details: agonist mode
T3 sequence (P13631 1-454): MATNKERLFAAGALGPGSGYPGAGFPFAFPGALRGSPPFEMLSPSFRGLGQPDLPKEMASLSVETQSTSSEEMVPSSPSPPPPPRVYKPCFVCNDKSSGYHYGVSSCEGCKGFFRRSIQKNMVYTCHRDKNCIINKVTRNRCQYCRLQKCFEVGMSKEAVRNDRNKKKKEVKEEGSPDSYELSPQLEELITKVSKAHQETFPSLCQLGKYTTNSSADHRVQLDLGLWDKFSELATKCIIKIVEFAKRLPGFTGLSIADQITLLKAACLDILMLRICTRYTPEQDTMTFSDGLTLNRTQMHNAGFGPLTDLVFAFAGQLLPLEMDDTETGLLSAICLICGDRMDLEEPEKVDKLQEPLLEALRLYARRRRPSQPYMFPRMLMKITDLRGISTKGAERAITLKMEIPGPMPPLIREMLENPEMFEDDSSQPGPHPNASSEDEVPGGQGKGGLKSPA
Description: as §1

RARα [4] = target: T1, RARα; assay: RARα transcriptional assay, antagonist activity; details: in the presence of 0.5 nM TTNPB
Description: as §1

RARβ [5] = target: T2, RARβ; assay: RARβ transcriptional assay, antagonist activity; details: in the presence of 0.5 nM TTNPB
Description: as §1

RARγ [6] = target: T3, RARγ; assay: RARγ transcriptional assay, antagonist activity; details: in the presence of 0.5 nM TTNPB
Description: as §1

SMILES	EC50 (RARα [1]) [nM]	EC50 (RARβ [2]) [nM]	EC50 (RARγ [3]) [nM]	Antagonist Activity RARα Efficacy (RARα [4])	IC50 (RARα [4]) [nM]	IC50 (RARβ [5]) [nM]	IC50 (RARγ [6]) [nM]
CC[C@H]1CC[C@H](C2=CC(C)(C)Oc3c(Br)cc(C(=O)Nc4ccc(C(=O)O)c(F)c4)cc32)CC1 [Compound 39]	> 1000	> 1000	> 1000	† (†, RARα antagonist efficacy >85%)	< 1	101 to 1000	101 to 1000
CC1CCC(C2=CC(C)(C)Oc3c(Br)cc(C(=O)Nc4ccc(C(=O)O)c(F)c4)cc32)CC1 (stereo not drawn) [Compound 35]	> 1000	> 1000	> 1000	† (†, RARα antagonist efficacy >85%)	< 1	11 to 100	> 1000
CC[C@H]1CC[C@@H](C2=CC(C)(C)Oc3c(Br)cc(C(=O)Nc4ccc(C(=O)O)c(F)c4)cc32)CC1 [Compound 40]	> 1000	> 1000	> 1000	† (†, RARα antagonist efficacy >85%)	< 1	> 1000	> 1000
CC(C)C1=CC(C)(C)Oc2c(Br)cc(C(=O)Nc3ccc(C(=O)O)c(F)c3)cc21 [Compound 33]	< 1	11 to 100	101 to 1000	–	> 1000	> 1000	> 1000
CC#CC1=CC(C)(C)Oc2c(Br)cc(C(=O)Nc3ccc(C(=O)O)c(F)c3)cc21 [Compound 37]	11 to 100	101 to 1000	> 1000	–	1 to 10	> 1000	> 1000
CC1(C)C=C(C2CCOCC2)c2cc(C(=O)Nc3ccc(C(=O)O)c(F)c3)cc(Br)c2O1 [Compound 34]	101 to 1000	101 to 1000	101 to 1000	† (†, RARα antagonist efficacy >85%)	11 to 100	> 1000	> 1000
CN1CCC(C2=CC(C)(C)Oc3c(Br)cc(C(=O)Nc4ccc(C(=O)O)c(F)c4)cc32)CC1 [Compound 32]	> 1000	> 1000	> 1000	–	> 1000	> 1000	> 1000
CC1(C)C=C([C@H]2CC[C@@H](C)CC2)c2cc(C(=O)Nc3ccc(C(=O)O)c(F)c3)cc(Br)c2O1 [Compound 36]	> 1000	> 1000	> 1000	† (†, RARα antagonist efficacy >85%)	< 1	> 1000	> 1000
CC1(C)CCC(C2=CC(C)(C)Oc3c(Br)cc(C(=O)Nc4ccc(C(=O)O)c(F)c4)cc32)CC1 [Compound 38]	> 1000	> 1000	> 1000	† (†, RARα antagonist efficacy >85%)	< 1	11 to 100	11 to 100

From patent publication US12492177B2, “RAR-α compounds for inflammatory disease and male contraception” (Orphagen Pharmaceuticals, Inc., priority 2019, dated 2025)
